Numbered stars: 1 amine (or outer) side, 2 acyl side, 3 side chain; on linkers, the order of the positions; unused ones are H or OH. Bridge positions count the residues as written; N and C are the ends. Square brackets hold non-standard residues; d marks the D form. Peptide text beside a SMILES is read from it. Pro(trans-4-Ph) = O=C(O)[C@@H]1C[C@@H](c2ccccc2)CN1; Pro(4R-Bn) = O=C(O)[C@@H]1C[C@@H](Cc2ccccc2)CN1; Pro(trans-4-F) = O=C(O)[C@@H]1C[C@@H](F)CN1; Bip = N[C@@H](Cc1ccc(-c2ccccc2)cc1)C(=O)O; Tpi = O=C(O)[C@@H]1Cc2c([nH]c3ccccc23)CN1; X2 = O=C([C@@H]1Cc2ccccc2N1[*:1])[*:2]; TBMB = c1c(C[*:1])cc(C[*:3])cc1C[*:2]; Hyp = O=C(O)[C@@H]1C[C@@H](O)CN1; 4Pal = N[C@@H](Cc1ccncc1)C(=O)O; Tic = O=C(O)[C@@H]1Cc2ccccc2CN1; Cha = N[C@@H](CC1CCCCC1)C(=O)O; Pen = CC(C)(S)[C@H](N)C(=O)O; Pip = O=C(O)[C@@H]1CCCCN1; Abu = CC[C@H](N)C(=O)O; Aib = CC(C)(N)C(=O)O
Assay: Plasma stability profiling Method #1 (MALDI-TOF, 35% plasma), rat plasma
Type: in vitro ADME
Conditions: Table 12; method #1
Protocol: A rapid plasma stability profiling assay was developed that employed mass spectrometric detection (MALDI-TOF, Voyager DE, Applied Biosystems) of the parent mass, until the time when the parent peptide mass was no longer observable. Specifically, 200 uM of peptide was incubated in the presence of 35% rat or human plasma (Sera labs, using citrate as anticoagulant) at 37 deg C., which was supplemented with 1×PBS (derived from a 10×PBS Stock, Sigma). At various time points (i.e. t=0, 3, 24 hrs, henceafter daily up to 10 days), 2 uL of sample was added to 18 uL of 30 mM ammonium bicarbonate in a 1:1 mixture of acetonitrile:H2O. Samples were frozen at −80 deg C. until the time of analysis. For mass spectrometric analysis that determines the approximate detection window of the peptide, the acetonitrile:H2O-diluted sample of a given time point was spotted directly (0.7 uL) onto the MALDI plate. Matrix (alpha-cyanocinnamic acid, Sigma, prepared as a saturated solution in 1:1 acetonitrile:water containing 0.1% trifluoroacetic acid) was layered over the sample (1 uL). At a similar laser intensity setting on the MALDI TOF, the time could then be determined until parent peptide was no longer detectable. It should be noted that this is a qualitative assay serves to detect relative changes in plasma stability.

| Observable in rat plasma, for days [days] | SMILES |
| --- | --- |
| 2 | CC(=O)N[C@H]1CSCc2cc3cc(c2)CSC[C@H](NC(=O)[C@H](CCCNC(=N)N)NC(=O)[C@H](C)NC(=O)[C@@H]2CCCN2C(=O)[C@H](Cc2ccc(-c4ccccc4)cc2)NC(=O)[C@H](CO)NC1=O)C(=O)N[C@@H](CC(C)C)C(=O)N[C@@H](Cc1c[nH]cn1)C(=O)N[C@@H](CCC(N)=O)C(=O)N[C@@H](CC(=O)O)C(=O)N[C@@H](CC(C)C)C(=O)N[C@H](C(N)=O)CSC3 [Ac-(06-34-18) 4,4,BPal2] (Ac-CS[Bip]PARCLHQDLC-NH2; linker 1-7-13 via TBMB) |
| 2 | CC(=O)N[C@H]1CSCc2cc3cc(c2)CSC[C@H](NC(=O)[C@H](CCCNC(=N)N)NC(=O)[C@H](C)NC(=O)[C@@H]2CCCN2C(=O)[C@H](Cc2ccncc2)NC(=O)[C@H](CO)NC1=O)C(=O)N[C@@H](CC(C)C)C(=O)N[C@@H](Cc1c[nH]cn1)C(=O)N[C@@H](CCC(N)=O)C(=O)N[C@@H](CC(=O)O)C(=O)N[C@@H](CC(C)C)C(=O)N[C@H](C(N)=O)CSC3 [Ac-(06-34-18) 4Pal2] (Ac-CS[4Pal]PARCLHQDLC-NH2; linker 1-7-13 via TBMB) |
| 2 | CC(=O)N[C@H]1CSCc2cc3cc(c2)CSC[C@H](NC(=O)[C@H](CCCNC(=N)N)NC(=O)[C@H](C)NC(=O)[C@@H]2CCCN2C(=O)[C@H](CC2CCCCC2)NC(=O)[C@H](CO)NC1=O)C(=O)N[C@@H](CC(C)C)C(=O)N[C@@H](Cc1c[nH]cn1)C(=O)N[C@@H](CCC(N)=O)C(=O)N[C@@H](CC(=O)O)C(=O)N[C@@H](CC(C)C)C(=O)N[C@H](C(N)=O)CSC3 [Ac-(06-34-18) Cha2] (Ac-CS[Cha]PARCLHQDLC-NH2; linker 1-7-13 via TBMB) |
| 2 | CC(=O)N[C@H]1CSCc2cc3cc(c2)CSC[C@H](NC(=O)[C@H](CCCNC(=N)N)NC(=O)[C@H](C)NC(=O)[C@@H]2CCCN2C(=O)[C@@H]2Cc4c([nH]c5ccccc45)CN2C(=O)[C@H](CO)NC1=O)C(=O)N[C@@H](CC(C)C)C(=O)N[C@@H](Cc1c[nH]cn1)C(=O)N[C@@H](CCC(N)=O)C(=O)N[C@@H](CC(=O)O)C(=O)N[C@@H](CC(C)C)C(=O)N[C@H](C(N)=O)CSC3 [Ac-(06-34-18) NorHar2] (Ac-CS[Tpi]PARCLHQDLC-NH2; linker 1-7-13 via TBMB) |

Same assay, conditions: Table 13; method #1

| SMILES | Observable in rat plasma, for days [days] |
| --- | --- |
| CC(=O)N[C@H]1CSCc2cc3cc(c2)CSC[C@H](NC(=O)[C@H](CCCNC(=N)N)NC(=O)[C@H](C)NC(=O)[C@@H]2C[C@@H](F)CN2C(=O)[C@H](Cc2c[nH]c4ccccc24)NC(=O)[C@H](CO)NC1=O)C(=O)N[C@@H](CC(C)C)C(=O)N[C@@H](Cc1c[nH]cn1)C(=O)N[C@@H](CCC(N)=O)C(=O)N[C@@H](CC(=O)O)C(=O)N[C@@H](CC(C)C)C(=O)N[C@H](C(N)=O)CSC3 [Ac-(06-34-18) 4FluoPro3] (Ac-CSW[Pro(trans-4-F)]ARCLHQDLC-NH2; linker 1-7-13 via TBMB) | 2 |
| CC(=O)N[C@H]1CSCc2cc3cc(c2)CSC[C@H](NC(=O)[C@H](CCCNC(=N)N)NC(=O)[C@H](C)NC(=O)C(C)(C)NC(=O)[C@H](Cc2c[nH]c4ccccc24)NC(=O)[C@H](CO)NC1=O)C(=O)N[C@@H](CC(C)C)C(=O)N[C@@H](Cc1c[nH]cn1)C(=O)N[C@@H](CCC(N)=O)C(=O)N[C@@H](CC(=O)O)C(=O)N[C@@H](CC(C)C)C(=O)N[C@H](C(N)=O)CSC3 [Ac-(06-34-18) Aib3] (Ac-CSW[Aib]ARCLHQDLC-NH2; linker 1-7-13 via TBMB) | 2 |
| CC(=O)N[C@H]1CSCc2cc3cc(c2)CSC[C@H](NC(=O)[C@H](CCCNC(=N)N)NC(=O)[C@H](C)NC(=O)[C@@H]2C[C@@H](O)CN2C(=O)[C@H](Cc2c[nH]c4ccccc24)NC(=O)[C@H](CO)NC1=O)C(=O)N[C@@H](CC(C)C)C(=O)N[C@@H](Cc1c[nH]cn1)C(=O)N[C@@H](CCC(N)=O)C(=O)N[C@@H](CC(=O)O)C(=O)N[C@@H](CC(C)C)C(=O)N[C@H](C(N)=O)CSC3 [Ac-(06-34-18) HyP3] (Ac-CSW[Hyp]ARCLHQDLC-NH2; linker 1-7-13 via TBMB) | 2 |

Now from value to compound:

| Observable in rat plasma, for days [days] | SMILES |
| --- | --- |
| 2 | CC(=O)N[C@H]1CSCc2cc3cc(c2)CSC[C@H](NC(=O)[C@H](CCCNC(=N)N)NC(=O)[C@H](C)NC(=O)[C@@H]2C[C@@H](Cc4ccccc4)CN2C(=O)[C@H](Cc2c[nH]c4ccccc24)NC(=O)[C@H](CO)NC1=O)C(=O)N[C@@H](CC(C)C)C(=O)N[C@@H](Cc1c[nH]cn1)C(=O)N[C@@H](CCC(N)=O)C(=O)N[C@@H](CC(=O)O)C(=O)N[C@@H](CC(C)C)C(=O)N[C@H](C(N)=O)CSC3 [Ac-(06-34-18) 4Benzyl Pro3] (Ac-CSW[Pro(4R-Bn)]ARCLHQDLC-NH2; linker 1-7-13 via TBMB) |
| 2 | CC(=O)N[C@H]1CSCc2cc3cc(c2)CSC[C@H](NC(=O)[C@H](CCCNC(=N)N)NC(=O)[C@H](C)NC(=O)[C@@H]2C[C@@H](c4ccccc4)CN2C(=O)[C@H](Cc2c[nH]c4ccccc24)NC(=O)[C@H](CO)NC1=O)C(=O)N[C@@H](CC(C)C)C(=O)N[C@@H](Cc1c[nH]cn1)C(=O)N[C@@H](CCC(N)=O)C(=O)N[C@@H](CC(=O)O)C(=O)N[C@@H](CC(C)C)C(=O)N[C@H](C(N)=O)CSC3 [Ac-(06-34-18) 4Phenyl Pro3] (Ac-CSW[Pro(trans-4-Ph)]ARCLHQDLC-NH2; linker 1-7-13 via TBMB) |
| 2 | CC(=O)N[C@H]1CSCc2cc3cc(c2)CSC[C@H](NC(=O)[C@H](CCCNC(=N)N)NC(=O)[C@H](C)NC(=O)[C@@H]2Cc4ccccc4N2C(=O)[C@H](Cc2c[nH]c4ccccc24)NC(=O)[C@H](CO)NC1=O)C(=O)N[C@@H](CC(C)C)C(=O)N[C@@H](Cc1c[nH]cn1)C(=O)N[C@@H](CCC(N)=O)C(=O)N[C@@H](CC(=O)O)C(=O)N[C@@H](CC(C)C)C(=O)N[C@H](C(N)=O)CSC3 [Ac-(06-34-18) Ind3] (Ac-CSW[X2]ARCLHQDLC-NH2; linker 1-7-13 via TBMB) |
| 2 | CC(=O)N[C@H]1CSCc2cc3cc(c2)CSC[C@H](NC(=O)[C@H](CCCNC(=N)N)NC(=O)[C@H](C)NC(=O)[C@@H]2Cc4c([nH]c5ccccc45)CN2C(=O)[C@H](Cc2c[nH]c4ccccc24)NC(=O)[C@H](CO)NC1=O)C(=O)N[C@@H](CC(C)C)C(=O)N[C@@H](Cc1c[nH]cn1)C(=O)N[C@@H](CCC(N)=O)C(=O)N[C@@H](CC(=O)O)C(=O)N[C@@H](CC(C)C)C(=O)N[C@H](C(N)=O)CSC3 [Ac-(06-34-18) NorHar3] (Ac-CSW[Tpi]ARCLHQDLC-NH2; linker 1-7-13 via TBMB) |
| 2 | CC(=O)N[C@H]1CSCc2cc3cc(c2)CSC[C@H](NC(=O)[C@H](CCCNC(=N)N)NC(=O)[C@H](C)NC(=O)[C@@H]2CCCCN2C(=O)[C@H](Cc2c[nH]c4ccccc24)NC(=O)[C@H](CO)NC1=O)C(=O)N[C@@H](CC(C)C)C(=O)N[C@@H](Cc1c[nH]cn1)C(=O)N[C@@H](CCC(N)=O)C(=O)N[C@@H](CC(=O)O)C(=O)N[C@@H](CC(C)C)C(=O)N[C@H](C(N)=O)CSC3 [Ac-(06-34-18) Pip3] (Ac-CSW[Pip]ARCLHQDLC-NH2; linker 1-7-13 via TBMB) |
| 2 | CC(=O)N[C@H]1CSCc2cc3cc(c2)CSC[C@H](NC(=O)[C@H](CCCNC(=N)N)NC(=O)[C@H](C)NC(=O)[C@@H]2Cc4ccccc4CN2C(=O)[C@H](Cc2c[nH]c4ccccc24)NC(=O)[C@H](CO)NC1=O)C(=O)N[C@@H](CC(C)C)C(=O)N[C@@H](Cc1c[nH]cn1)C(=O)N[C@@H](CCC(N)=O)C(=O)N[C@@H](CC(=O)O)C(=O)N[C@@H](CC(C)C)C(=O)N[C@H](C(N)=O)CSC3 [Ac-(06-34-18) Tic3] (Ac-CSW[Tic]ARCLHQDLC-NH2; linker 1-7-13 via TBMB) |

Same assay, conditions: Table 14; method #1

| Observable in rat plasma, for days [days] | SMILES |
| --- | --- |
| 2 | CC[C@@H]1NC(=O)[C@@H]2CCCN2C(=O)[C@H](Cc2c[nH]c3ccccc23)NC(=O)[C@H](CO)NC(=O)[C@@H](NC(C)=O)CSCc2cc3cc(c2)CSC[C@H](NC(=O)[C@H](CCCNC(=N)N)NC1=O)C(=O)N[C@@H](CC(C)C)C(=O)N[C@@H](Cc1c[nH]cn1)C(=O)N[C@@H](CCC(N)=O)C(=O)N[C@@H](CC(=O)O)C(=O)N[C@@H](CC(C)C)C(=O)N[C@H](C(N)=O)CSC3 [Ac-(06-34-18) Aba4] (Ac-CSWP[Abu]RCLHQDLC-NH2; linker 1-7-13 via TBMB) |
| 7 | CC(=O)N[C@H]1CSCc2cc3cc(c2)CSC[C@H](NC(=O)[C@H](CCCNC(=N)N)NC(=O)C(C)(C)NC(=O)[C@@H]2CCCN2C(=O)[C@H](Cc2c[nH]c4ccccc24)NC(=O)[C@H](CO)NC1=O)C(=O)N[C@@H](CC(C)C)C(=O)N[C@@H](Cc1c[nH]cn1)C(=O)N[C@@H](CCC(N)=O)C(=O)N[C@@H](CC(=O)O)C(=O)N[C@@H](CC(C)C)C(=O)N[C@H](C(N)=O)CSC3 [Ac-(06-34-18) Aib4] (Ac-CSWP[Aib]RCLHQDLC-NH2; linker 1-7-13 via TBMB) |
| 5 | CC(=O)N[C@H]1CSCc2cc3cc(c2)CSC(C)(C)[C@H](NC(=O)[C@H](CCCNC(=N)N)NC(=O)[C@H](C)NC(=O)[C@@H]2CCCN2C(=O)[C@H](Cc2c[nH]c4ccccc24)NC(=O)[C@H](CO)NC1=O)C(=O)N[C@@H](CC(C)C)C(=O)N[C@@H](Cc1c[nH]cn1)C(=O)N[C@@H](CCC(N)=O)C(=O)N[C@@H](CC(=O)O)C(=O)N[C@@H](CC(C)C)C(=O)N[C@H](C(N)=O)CSC3 [Ac-(06-34-18) Cys2ToPen2] (Ac-CSWPAR[Pen]LHQDLC-NH2; linker 1-7-13 via TBMB) |
